# In US8586611B2 (priority 2005, dated 2013):
# Columns and labels:
# Type in all cases: in vivo
# [1] = test system: Erysiphe graminis f. sp. tritici; assay: Test E: wheat powdery mildew, spray the day before inoculation (disease rating, 100 = 100% disease control)
# Summary of the method: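 Protective test: spores of E. graminis f. sp. tritici dusted on wheat seedlings one day after run-off spraying of test suspension (acetone/water with 250 ppm surfactant; 200 ppm = 500 g/ha). Ratings after 7 days in growth chamber at 20° C, 100 = full control, 0 = none, relative to controls.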
# [2] = test system: Plasmopara viticola; assay: Test B: grape downy mildew, spray 24 h after inoculation (disease rating, 100 = 100% disease control)
# Summary of the method: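 This is a curative spray test, applied 24 h after inoculation. Compounds in 50/50 acetone–water with 250 ppm Trem 014 surfactant were sprayed to run-off on P. viticola-infected seedlings, with 200 ppm equating to 500 g/ha. Plants were kept 5 days in a 20 °C growth chamber, then 24 h humid, and scored 0–100 for disease control relative to controls.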
# [3] = test system: Pseudoperonospora cubensis; assay: Test A: cucumber downy mildew, spray the day before inoculation (disease rating, 100 = 100% disease control)
# Excerpt: The test compounds were first dissolved in acetone in an amount equal to 3% of the final volume and then suspended at the desired concentration (in ppm) in acetone and purified water (50/50 mix by volume) containing 250 ppm of the surfactant Trem® 014 (polyhydric alcohol esters). The resulting test suspensions were then used in tests A-E. Spraying a 200 ppm test suspension to the point of run-off on the test plants was the equivalent of a rate of 500 g/ha.
# The test suspension was sprayed to the point of run-off on cucumber seedlings. The following day the seedlings were inoculated with a spore suspension of Pseudoperonospora cubensis (the causal agent of cucumber downy mildew) and incubated in a saturated atmosphere at 20° C. for 24 h, and then moved to a growth chamber at 20° C. for 6 days, after which disease ratings were made.
# Results for Tests A-F are given in Table A. In the table, a rating of 100 indicates 100% disease control and a rating of 0 indicates no disease control (relative to the controls). A dash (-) indicates no test results.
# [4] = test system: Phytophthora infestans; assay: whole plant or invertebrate; conditions: tomato late blight
# [5] = spray the day before inoculation, compounds without asterisk (not 40 or 10 ppm)
# [6] = spray 24 h after inoculation, compounds without asterisk (not 40 or 10 ppm)
# [7] = sprayed the day before inoculation, 7 days at 20° C., unmarked compounds (no asterisk, not 40 or 10 ppm)
# [8] = sprayed 24 h after inoculation, unmarked compounds (no asterisk, not 40 or 10 ppm)
# [9] = sprayed the day before inoculation, unmarked compounds (no asterisk, not 40 or 10 ppm)
Molecule,"Test E disease rating (100 = 100% disease control, 0 = no disease control) [1, 5] [%]","Test B disease rating (100 = 100% disease control, 0 = no disease control) [2, 6] [%]","Test A disease rating (100 = 100% disease control, 0 = no disease control) [3, 5] [%]","Test C disease rating (100 = 100% disease control, 0 = no disease control) [4, 5] [%]","Test E disease rating (100 = 100% disease control, 0 = no disease control) [1, 7]","Test B disease rating (100 = 100% disease control, 0 = no disease control) [2, 8]","Test A disease rating (100 = 100% disease control, 0 = no disease control) [3, 9]","Test C disease rating (100 = 100% disease control, 0 = no disease control) [4, 9]"
"N-methyl-2-[1-[[5-methyl-3-(trifluoromethyl)-1H-pyrazol-1-yl]acetyl]-4-piperidinyl]-N-(1,2,3,4-tetrahydro-1-naphthalenyl)-4-thiazolecarboxamide [Compound 188]",86,6,90,29,,,,
CC1CCN(C(=O)c2csc(C3CCN(C(=O)Cc4ccccc4Cl)CC3)n2)CC1 [compound 268],,,,,0,6,0,36
C[C@H](c1ccccc1)N(C)C(=O)c1csc(C2CCN(C(=O)Cc3cc(F)cc(F)c3)CC2)n1 [compound 37],87,23,85,80,,,,
"N-methyl-2-[4-[[5-methyl-3-(trifluoromethyl)-1H-pyrazol-1-yl]acetyl]-1-piperazinyl]-N-[(1R)-1,2,3,4-tetrahydro-1-naphthalenyl]-4-thiazolecarboxamide [Compound 220]",0,0,0,0,,,,
C[C@H](c1ccccc1)N(C)C(=O)c1csc(C2CCN(C(=O)Cc3cc(F)cc(C(F)(F)F)c3)CC2)n1 [compound 40],0,76,98,60,,,,
"N-methyl-1-[1-[[5-methyl-3-(trifluoromethyl)-1H-pyrazol-1-yl]acetyl]-4-piperidinyl]-N-[(1R)-1,2,3,4-tetrahydro-1-naphthalenyl]-1H-pyrazole-4-carboxamide [Compound 233]",29,51,96,91,,,,
N-methyl-2-[1-[[5-methyl-3-(trifluoromethyl)-1H-pyrazol-1-yl]acetyl]-4-piperidinyl]-N-[(1R)-1-phenylethyl]-4-thiazolecarboxamide [Compound 70],0,0,0,33,,,,
"N-methyl-2-[1-[[5-methyl-3-(trifluoromethyl)-1H-pyrazol-1-yl]acetyl]-4-piperidinyl]-N-[(1R,4R)-1,2,3,4-tetrahydro-4-hydroxy-1-naphthalenyl]-4-thiazolecarboxamide [Compound 206]",0,5,99,31,,,,
C[C@H](c1ccccc1)N(C)C(=O)c1csc(C2CCN(C(=O)Cc3cccc(S(C)(=O)=O)c3)CC2)n1 [compound 31],0,0,0,0,,,,
C[C@H](c1ccccc1)N(C)C(=O)c1csc(C2CCN(C(=O)Cc3cccc(C(F)(F)F)c3F)CC2)n1 [compound 42],21,31,99,100,,,,
"2-[1-[[3,5-bis(trifluoromethyl)-1H-pyrazol-1-yl]acetyl]-4-piperidinyl]-N-methyl-N-[(1R)-1,2,3,4-tetrahydro-1-naphthalenyl]-4-thiazolecarboxamide [Compound 210]",0,6,0,0,,,,
C[C@H](c1ccccc1)N(C)C(=O)c1csc(C2CCN(C(=O)Nc3cccc(C(F)(F)F)c3)CC2)n1 [compound 155],0,41,100,31,,,,
C[C@H](c1ccccc1)N(C)C(=O)c1csc(C2CCN(C(=O)Cc3ccc(Cl)cc3Cl)CC2)n1 [compound 6],41,28,0,0,,,,
"2-[1-[(2,5-dichlorophenyl)acetyl]-4-piperidinyl]-N-methyl-N-[(1R)-1-phenylpropyl]-4-thiazolecarboxamide [Compound 110]",21,53,0,0,,,,
"2-[4-[(2,5-dimethylphenyl)acetyl]-1-piperazinyl]-N-methyl-N-[(1R)-1-phenylethyl]-5-thiazolecarboxamide [Compound 74]",21,14,0,0,,,,
"N-methyl-2-[1-[[5-methyl-3-(trifluoromethyl)-1H-pyrazol-1-yl]acetyl]-4-piperidinyl]-N-[(1R,4S)-1,2,3,4-tetrahydro-4-hydroxy-1-naphthalenyl]-4-thiazolecarboxamide [Compound 191]",0,17,97,90,,,,
C[C@@H](NC(=O)c1csc(C2CCN(C(=O)Cc3cccc(C(F)(F)F)c3)CC2)n1)c1ccc(Br)cc1 [compound 270],,,,,0,0,0,0
O=C(Cc1ccccc1Cl)N1CCC(c2nc(C(=O)N3CCc4ccccc4C3)cs2)CC1 [compound 267],,,,,0,6,95,21
CN(Cc1ccccc1)C(=O)c1csc(C2CCN(C(=O)Cc3ccccc3Cl)CC2)n1 [compound 161],42,14,0,15,,,,
C[C@H](c1ccccc1)N(C)C(=O)c1csc(C2CCN(C(=O)Cc3cccc(OC(F)(F)F)c3)CC2)n1 [compound 49],85,83,97,67,,,,
C[C@H](c1ccccc1)N(C)C(=O)c1csc(C2CCN(C(=O)Cc3ccccc3OC(F)(F)F)CC2)n1 [compound 45],0,70,95,98,,,,
"N-[(1R)-2,3-dihydro-1H-inden-1-yl]-N-methyl-2-[1-[[5-methyl-3-(trifluoromethyl)-1H-pyrazol-1-yl]acetyl]-4-piperidinyl]-4-thiazolecarboxamide [Compound 178]",0,99,100,100,,,,
